The source of these data is PubChem BioAssay AID1996.

Structures are written as SMILES. In brackets after ≈: the same amount, converted by molar mass.

The term kinetic solubility denotes solubility judged after dilution from a stock solution rather than from solid.

For the data set the following is noted: buffer; pH 7.4; 200.0 µM.
As to `OCC1(Cc2ccccc2)CCN(Cc2cccc(F)c2F)CC1`, the kinetic solubility was found to be 0.043 mg/mL (≈ 130 µM).
As for `N/C(CN1CCCCC1)=N\S(=O)(=O)c1cc(Cl)cc(Cl)c1`, the figure is 0.0037 mg/mL (≈ 10.6 µM); as for `Cc1ccc(OCC(=O)O/N=C(\N)c2ccncc2)c(C)c1`, 0.0309 mg/mL (≈ 103 µM).
As for `COc1ccccc1C(=O)NCCC(=O)Nc1ncccc1O`, the figure is more than 0.0473 mg/mL; as for `CCOC(=O)c1cc(C)nc(N2CCCCC2)c1C#N`, 0.0115 mg/mL (≈ 42.1 µM).
As for `CN(C)c1ccc(S(=O)(=O)N2CCC(Cc3ccccc3)CC2)cn1`, the figure is 0.002 mg/mL (≈ 5.56 µM).
`Cc1ccc(NC(=O)c2cc(-c3ccccc3)n(CCCN3CCOCC3)c2C)cc1` registered a kinetic solubility of 0.0199 mg/mL (≈ 47.7 µM).
Under `CCN(Cc1cnn(C)c1)Cc1nc(Cc2ccccc2Cl)no1` stands more than 0.0519 mg/mL.
`NS(=O)(=O)c1cc(C(=O)N2CCNC(=O)C2)ccc1Cl` gave a solubility (kinetic) of more than 0.0477 mg/mL.
Under `CN1CCN(c2nc3ccccc3o2)CC1` stands more than 0.0326 mg/mL; under `Cc1ccc(Oc2ccccc2NC(=O)C2=COCCO2)cc1`, 0.0158 mg/mL (≈ 50.7 µM); under `COc1ccc(/C=C/C(=O)NC(=S)NCc2ccccc2)cc1OC`, 0.0024 mg/mL (≈ 6.73 µM).
Under `CS(=O)(=O)N1CCCC(C(=O)Nc2ccccc2)C1` (stereo not drawn) stands 0.0422 mg/mL (≈ 149 µM); under `Cc1cc(NC(=O)CSc2nc3c(cc2C#N)CCC3)no1`, 0.0014 mg/mL (≈ 4.45 µM).
As for `CC1=C(C)CC(C(=O)NCCc2ccc(F)cc2)C(C(=O)O)C1` (stereo not drawn), the kinetic solubility is more than 0.0479 mg/mL.
The molecule `CCc1cccc2c(C(=O)CN3C(=O)NC4(CCCCC4)C3=O)c[nH]c12` displayed a kinetic solubility of 0.007 mg/mL (≈ 19.8 µM).
As for `CC1CC(C)CN(C(=O)COC(=O)c2ccc3ncsc3c2)C1` (stereo not drawn), the figure is 0.0449 mg/mL (≈ 135 µM).
Under `CC(C)N(C(=O)Nc1ccc2nccnc2c1)C(C)C` stands 0.0023 mg/mL (≈ 8.44 µM).
For the molecule `Clc1nc(NCc2ccco2)nc(N2CCCCC2)n1`, the solubility (kinetic) was determined as 0.0003 mg/mL (≈ 1.02 µM).
On to `CCOc1ccc2nc(Cl)sc2c1`, for which the solubility (kinetic) is less than 0.0005 mg/mL.
Under `NC(=O)C1CCN(C(=O)CNC(=O)c2ccccc2)CC1` stands more than 0.0434 mg/mL; under `O=C(Nc1ccc(Br)cc1)C1CC(c2c(F)cccc2Cl)=NO1` (stereo not drawn), 0.0067 mg/mL (≈ 16.8 µM); under `CC1CCN(C(=O)c2ccc(S(=O)(=O)N3CCOCC3)cc2)CC1`, 0.0432 mg/mL (≈ 123 µM).
Under `O=C(CN1C(=O)c2ccccc2S1(=O)=O)NCc1cccs1` stands 0.0222 mg/mL (≈ 66 µM); under `O=S(=O)(Nc1ccc(N2CCCCC2)cc1)c1ccc(F)cc1F`, 0.0413 mg/mL (≈ 117 µM); under `O=C(CCN1C(=O)C2CC=CCC2C1=O)Nc1ccccc1Cl` (stereo not drawn), more than 0.0499 mg/mL.
Under `COCC(C)NC(=O)C1c2ccccc2Oc2ccccc21` (stereo not drawn) stands 0.0401 mg/mL (≈ 135 µM); under `COc1ccc(NC2=NCCCS2)cc1OC`, more than 0.0378 mg/mL.
Turning to `COc1ccccc1NS(=O)(=O)c1ccc(C(=O)NCc2ccco2)cc1`, the solubility (kinetic) was found to be 0.053 mg/mL (≈ 137 µM).
As for `O=C(NCC1CCCCC1)c1cc([N+](=O)[O-])ccc1Cl`, the figure is 0.008 mg/mL (≈ 27 µM); as for `CCN(CC)Cc1nc2c(c(=O)[nH]1)C(CC)(CC)Cc1ccccc1-2`, 0.0017 mg/mL (≈ 5.01 µM).
As for `O=Cc1cccc(Oc2ncccn2)c1`, the figure is more than 0.03 mg/mL; as for `CCC(=O)Nc1ccc(S(=O)(=O)Nc2ccccn2)cc1`, more than 0.0458 mg/mL.
Under `CCCCCCCCn1c(=O)c(C(=O)OC)c(N)c2ccccc21` stands 0.0009 mg/mL (≈ 2.72 µM); under `Cc1ccc2[nH]c(=O)c(-c3noc(CC(C)C)n3)cc2c1`, 0.0051 mg/mL (≈ 18 µM); under `CCOc1cccnc1Sc1ccccc1`, 0.0277 mg/mL (≈ 120 µM).
On to `CCc1sc(C(=O)Nc2ncccc2C)cc1C`, for which the solubility (kinetic) is more than 0.0391 mg/mL.
Under `O=C(NCCN1CCOCC1)c1cc(-c2ccccc2Cl)on1` stands more than 0.0504 mg/mL; under `Cc1cccc(NC(=O)CNC(=O)c2cccc(-n3cccc3)c2)c1C`, 0.0086 mg/mL (≈ 24.8 µM); under `COc1ccc(NC(=O)Nc2cccc3ccccc23)cc1OC`, 0.0004 mg/mL (≈ 1.24 µM).
Molecule `O=[N+]([O-])c1ccc(Cl)cc1N1CCCC1` yielded a kinetic solubility of 0.0025 mg/mL (≈ 11 µM).
As for `Cc1ccc(NC2(C#N)C(=O)Nc3ccccc32)cc1C` (stereo not drawn), the figure is 0.0233 mg/mL (≈ 84 µM); as for `CCOc1ccc(-c2nonc2NC(=O)c2ccco2)cc1`, 0.0121 mg/mL (≈ 40.4 µM).
Consider `O=C(Nc1ccccc1C(F)(F)F)c1ccsc1`, for which the kinetic solubility is more than 0.0407 mg/mL.
Under `CCCCOCCCNC(=O)N[C@H](C(=O)O)C(C)CC` (stereo partly drawn) stands more than 0.0433 mg/mL; under `Cl.Clc1ccc(Cn2c(CN3CCCC3)nc3ccccc32)cc1`, 0.0495 mg/mL.
With `CC(C)CC1NC(=O)N(CC(=O)Nc2cc(S(=O)(=O)N3CCOCC3)ccc2Cl)C1=O` (stereo not drawn), the solubility (kinetic) was found to be 0.0082 mg/mL (≈ 17.3 µM). Against the preceding molecule, the solubility kinetic is about 6-fold lower.
In turn, `O=C(OCC(=O)N1CCCC1=O)c1cccc([N+](=O)[O-])c1` had a kinetic solubility of more than 0.0438 mg/mL.
Under `O=S1(=O)N=C(Nc2ccc(O)cc2)c2ccccc21` stands 0.011 mg/mL (≈ 40.1 µM); under `CCCOc1ccc(S(=O)(=O)N2CCOCC2)cc1[N+](=O)[O-]`, more than 0.0496 mg/mL.
Under `CC(=O)Nc1ccc(NC(=O)c2cccc(Oc3ccccc3)c2)cc1` stands less than 0.0004 mg/mL.
`c1ccc(-c2noc(C3CCC3)n2)nc1` had a kinetic solubility of 0.0206 mg/mL (≈ 102 µM).
As for `O=C(COc1ccccc1Br)Nc1ccc2c(c1)OCCCO2`, the figure is 0.0016 mg/mL (≈ 4.23 µM).
